Data from ChEMBL document CHEMBL1128521, “Partial GABAA receptor agonists. Synthesis and in vitro pharmacology of a series of nonannulated analogs of 4,5,6,7-tetrahydroisoxazolo[5,4-c]pyridin-3-ol” (J Med Chem, 1995).

Columns and labels:
Rattus norvegicus = species: Rattus norvegicus; test: cells; assay type: functional, organism-based; details: Brain
GABA B receptor = GABA B receptor (Rattus norvegicus, UniProt O88871+Q9Z0U4)
[1] = molecular target: GABA-A receptor; anion channel
[2] = Reversal potential is determined electrophysiologically against the GABA A receptor; assay type: functional

Sequence of GABA B receptor (Q9Z0U4 whole entry): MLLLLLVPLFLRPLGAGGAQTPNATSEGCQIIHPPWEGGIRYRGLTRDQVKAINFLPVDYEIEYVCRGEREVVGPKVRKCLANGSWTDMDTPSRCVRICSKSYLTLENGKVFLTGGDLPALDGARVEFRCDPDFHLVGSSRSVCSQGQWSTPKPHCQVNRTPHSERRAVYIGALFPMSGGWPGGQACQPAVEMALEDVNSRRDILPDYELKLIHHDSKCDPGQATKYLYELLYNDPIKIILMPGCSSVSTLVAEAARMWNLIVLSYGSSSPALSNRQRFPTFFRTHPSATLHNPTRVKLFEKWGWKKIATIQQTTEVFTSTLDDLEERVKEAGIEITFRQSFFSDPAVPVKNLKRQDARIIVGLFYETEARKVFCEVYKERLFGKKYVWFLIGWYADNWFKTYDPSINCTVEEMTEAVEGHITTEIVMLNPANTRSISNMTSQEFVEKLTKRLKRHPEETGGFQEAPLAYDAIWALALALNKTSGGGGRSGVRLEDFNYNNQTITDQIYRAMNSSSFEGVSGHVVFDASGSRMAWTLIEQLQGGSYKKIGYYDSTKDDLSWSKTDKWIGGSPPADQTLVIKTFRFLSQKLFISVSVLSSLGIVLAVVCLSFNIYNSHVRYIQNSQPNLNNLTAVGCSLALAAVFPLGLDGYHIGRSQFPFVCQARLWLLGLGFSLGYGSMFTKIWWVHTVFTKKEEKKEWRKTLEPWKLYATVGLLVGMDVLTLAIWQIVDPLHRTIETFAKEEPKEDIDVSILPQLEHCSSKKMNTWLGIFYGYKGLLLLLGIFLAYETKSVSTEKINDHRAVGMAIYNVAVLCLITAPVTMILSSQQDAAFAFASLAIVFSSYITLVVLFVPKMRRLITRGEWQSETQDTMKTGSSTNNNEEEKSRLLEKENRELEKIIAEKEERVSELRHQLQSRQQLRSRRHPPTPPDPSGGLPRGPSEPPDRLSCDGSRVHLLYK
Sequence of GABA B receptor (O88871 whole entry): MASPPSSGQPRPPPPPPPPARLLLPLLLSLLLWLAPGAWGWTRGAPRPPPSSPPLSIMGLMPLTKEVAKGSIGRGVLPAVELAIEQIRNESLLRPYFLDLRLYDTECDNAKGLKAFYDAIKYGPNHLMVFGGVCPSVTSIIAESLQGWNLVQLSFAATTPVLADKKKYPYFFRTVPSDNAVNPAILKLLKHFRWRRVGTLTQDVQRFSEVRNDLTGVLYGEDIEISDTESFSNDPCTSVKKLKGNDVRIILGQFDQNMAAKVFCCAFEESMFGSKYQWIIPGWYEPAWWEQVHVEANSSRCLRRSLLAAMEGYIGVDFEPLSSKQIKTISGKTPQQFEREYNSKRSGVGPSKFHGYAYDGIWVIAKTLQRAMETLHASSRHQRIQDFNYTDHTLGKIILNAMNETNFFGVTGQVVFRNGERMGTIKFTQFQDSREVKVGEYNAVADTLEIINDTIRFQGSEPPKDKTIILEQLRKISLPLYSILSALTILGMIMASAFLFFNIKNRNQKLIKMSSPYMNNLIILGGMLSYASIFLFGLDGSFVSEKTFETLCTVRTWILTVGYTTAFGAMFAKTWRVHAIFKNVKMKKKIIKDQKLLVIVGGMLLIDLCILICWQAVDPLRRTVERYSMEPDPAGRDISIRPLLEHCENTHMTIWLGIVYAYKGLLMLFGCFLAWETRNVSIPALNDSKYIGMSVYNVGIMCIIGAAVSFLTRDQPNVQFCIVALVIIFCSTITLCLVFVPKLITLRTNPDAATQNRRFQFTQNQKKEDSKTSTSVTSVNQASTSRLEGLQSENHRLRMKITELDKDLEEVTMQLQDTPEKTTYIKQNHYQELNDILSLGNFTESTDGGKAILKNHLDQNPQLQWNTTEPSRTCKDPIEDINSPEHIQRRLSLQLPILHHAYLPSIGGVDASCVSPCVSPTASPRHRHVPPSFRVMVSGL
Description for physchem: PKa values of the compound

IC50 (GABA B receptor)	IC50 [1]	SMILES	IC50 (Rattus norvegicus)	Reverse potential [2]	pKa (physchem)
> 100 µM	> 100 µM	O=C(O)CCC1=CCNCC1	> 300 µM		
		Oc1cc(C2=CCNCC2)sn1	> 300 µM	5.3	
> 100 µM	> 100 µM	O=C(O)/C=C/C1=CCNCC1	> 300 µM		
		Oc1cc(C2CCNCC2)on1	> 300 µM	5.9	5.3
> 100 µM	52 µM	O=C(O)/C=C/C1CCNCC1	> 300 µM		
> 100 µM	> 100 µM	O=C(O)CCC1CCNCC1	> 300 µM		
> 100 µM	0.022 µM	O=C(O)C1=CCNCC1 [ISOGUVACINE]	> 300 µM	5.2	

SMILES	IC50 (GABA B receptor)	IC50 [1]	IC50 (Rattus norvegicus)	Reverse potential [2]	pKa (physchem)
O=c1cc(C2=CCNCC2)s[nH]1	> 100 µM				
Oc1cc(C2CCNCC2)no1	> 100 µM	26 µM	> 300 µM	4.3	
Oc1cc(C2CCNCC2)sn1	> 100 µM	1.3 µM	> 300 µM	5.5	6.9
Oc1cc(C2=CCNCC2)on1	> 100 µM	32 µM	> 300 µM	5.6	5.1
